Reference: US11045473B2, “Compositions and methods for therapy of prostate cancer using drug combinations to target polyamine biosynthesis and related pathways” (Health Research, Inc., priority 2015, dated 2021)
Entries after “also recorded” stand apart in the source; their conditions may differ.

Columns and labels:
Type in all cases: cell-based, human
ODC1 = assay: Western blot of ODC1 in LNCaP cells treated with BENSpm; settings: BENSpm for 96 hours
Procedure: (§1) FIG. 11 depicts a Western blot showing AMD1, ODC1, SAT1 and B-actin protein expression in wild type LNCaP cells pretreated with +/−DHT for 24 hours followed by BENSpm for 96 hours.
(§2) We next analyzed whether the metabolic stress in CaP cells caused by high biosynthetic flux to maintain polyamine pools can be enhanced by increasing the activity of SAT1. We tested whether this could cause increased secretion of acetylated polyamines, putting intracellular pools in deficit, which should necessitate more biosynthesis, and should therefore potentiate any benefit of inhibiting the MSP. To conduct this analysis we used LNCaP cells that stably overexpress SAT1 in a Tet-off system (LNG53 cells, described in Kee, K., et al. J Biol Chem 279, 27050-27058 (2004)).

DU145 = assay: Proliferation of DU145, BENSpm 24 h pre-treatment then 96 hr MTDIA; settings: AR negative DU145, 2.5 μM BENSpm
Procedure: (§3) Tet was removed 24 hours prior to 96 hr treatment with MTDIA. […] Cells were pre-treated with BENSpm for 24 hours followed by 96 hr treatment with MTDIA.
as §2

SAT1 [1] = assay: SAT1 mRNA and protein expression in LNCaP cells treated with BENSpm; settings: BENSpm 0.1 to 10 μM
Procedure: as §1, §2

SAT1 [2] = assay: SAT1 activity in response to BENSpm treatment
Source text: as §2

AMD1 = assay: Western blot of AMD1 in LNCaP cells treated with BENSpm; settings: BENSpm for 96 hours
Procedure: as §1, §2

LNCaP = assay: Proliferation of wild type LNCaP, BENSpm 24 h pre-treatment then 96 hr MTDIA
Procedure: as §3, §2

MTAP [3] = assay: Western blot of MTAP protein expression in FaDu; settings: 10 and 20 uM MTA for 4 days
Procedure: (§4) FIG. 9. (A) Proliferation curves for LNCaP, DU145 and PC3 treated with MTDIA in the absence or presence of 10 or 20 uM MTA, for 4 and (B) 8 days. […] (C) Western blot analysis of FaDu, LNCaP, and DU145 cells after indicated treatments of MTA (0, 10, or 20 uM) or the respective 4 day IC25 and IC50 dose of MTDIA for each cell line plus or minus MTA immunoblotted with antibodies against MTAP, SMS, and SRM, with B-actin as a loading control. Western blot images are representative of biological triplicates.
(§5) Western Blotting—Whole cell extracts were prepared in RIPA buffer (150 mM NaCl, 1.0% NP-40, 0.5% deoxycholate, 0.1% SDS, 50 mM Tris-HCl pH 8.0, 5 mM EDTA and 0.5 mM PMSF) supplemented with 1× proteinase inhibitor. Protein concentrations were determined by Bradford Assay (Thermo Scientific, Cat #1856209). […] MTAP for Westerns was purchased from Proteintech™ (Cat #11475-1-AP. SRM and SMS were purchased from Abcam® (Cat #ab111884 and ab156879). B-actin antibody for Westerns was purchased from Sigma-Aldrich (Cat #A5441) and GAPDH was from Santa Cruz Biotecnology Inc. (Cat #sc-25778). Films were scanned using the Biorad ChemiDoc XRS, and band intensities were calculated using Image Lab™. Intensity values were normalized to B-actin loading control band intensities and made relative to control treatment conditions.

MTAP [4] = assay: Western blot of MTAP protein expression in LNCaP; settings: MTA treatment
Procedure: as §4, §5

MTAP [5] = assay: Western blot of MTAP protein expression in DU145; settings: DU145, 10 and 20 uM MTA for 4 days
Procedure: as §4, §5

Row | Compound | effect on ODC1 (ODC1) | sensitivity to MTDIA (DU145) | SAT1 mRNA (SAT1 [1]) | SAT1 protein (SAT1 [1]) | SAT1 activity, dose dependent increase (SAT1 [2]; (+) dihydrotestosterone (DHT) conditions) | SAT1 activity, dose dependent increase (SAT1 [2]; (−) DHT conditions) | effect on AMD1 (AMD1) | sensitivity to MTDIA (LNCaP; 2.5 μM BENSpm) | effect on proliferation (LNCaP; 2.5 μM BENSpm alone) | MTAP protein expression (MTAP [3]) | MTAP levels (MTAP [4]) | MTAP protein expression (MTAP [5])
1 | CCNCCCNCCCNCCCNCC [BENSpm, N(1),N(11)-bisethylnorspermine] | minimal effects | more sensitive to MTDIA; also recorded: strongly increased sensitivity to MTDIA | increased | increased | 17-40 fold | 6-20 fold | minimal effects | more sensitive to MTDIA; also recorded: greatly increased sensitivity to MTDIA | no effect on proliferation | – | – | –
2 | CSC[C@H]1O[C@@H](n2cnc3c(N)ncnc32)[C@H](O)[C@@H]1O [MTA] | – | – | – | – | – | – | – | – | – | slightly decreased | unchanged | slightly increased
